Here are results for 39 molecules from patent publication US9133186B2, “Hetero ring-fused imidazole derivative having AMPK activating effect” (Shionogi & Co., Ltd., priority 2010, dated 2015).

For the experiment, the target named is T1, human AMPK α1β1γ1 enzyme (Homo sapiens, UniProt Q13131+Q9Y478).
T1 construct: purchased Carna Biosciences, Inc
The experiment is described as follows: AMPK activator evaluation, Test Example 1 (mobility shift, FL-Peptide 7). The class given is biochemical. The settings on record: human AMPK α1β1γ1, control without compound = 100%; for Emax: read-out: Emax (maximum rate of increase in activity within the measurement range). How it is done: To a buffer solution consisting of a 50 mM HEPES-NaOH buffer solution (pH 7.0), 100 mM NaCl, 10 mM magnesium chloride, 0.1% bovine serum albumin, 0.2 mM sodium orthovanadate(V), 1 mM ethylene glycol-bis(2-aminoethyl ether)-N,N,N′,N′-tetraacetic acid (EGTA), 5 mM disodium (3-glycerophosphate and 2 mM dithiothreitol, a human AMPK α1β1γ1 enzyme (manufactured by Carna Biosciences, Inc.) was added in an amount to give a conversion rate of approximately 10% by reaction for 2 hours, and a compound dissolved in DMSO was added thereto so as to have a 1% DMSO concentration. The obtained liquid was left to stand for 10 minutes.
To the liquid, a substrate solution consisting of a 50 mM HEPES-NaOH buffer solution (pH 7.0), 100 mM NaCl, 10 mM magnesium chloride, 0.1% bovine serum albumin, 0.2 mM sodium orthovanadate(V), 1 mM ethylene glycol-bis(2-aminoethyl ether)-N,N,N′,N′ tetraacetic acid (EGTA), 5 mM disodium β-glycerophosphate, 2 mM dithiothreitol, 0.4 mM ATP and 3 μM FL-Peptide 7 (manufactured by Caliper Life Sciences, Inc.) was added in equal amount (10 μl in total). The obtained liquid was allowed to react at 25° C. for 2 hours, and 10 μl of 20 mM EDTA was then added thereto to stop the reaction.
To detect phosphorylated fluorescent substrates, the reaction liquid was applied to a measuring device, LabChip EZ Reader II manufactured by Caliper Life Science, Inc., for detecting fluorescence by using differences in mobility due to differences in charge. The setting conditions for the device were pressure, −1.5 PSI; upstream voltage, −2250 V; downstream voltage, −400 V; post sample buffer sip time, 40 seconds; final delay, 120 seconds; and peak order, Product First.

T1 sequence (Q13131 10-559 limits assumed): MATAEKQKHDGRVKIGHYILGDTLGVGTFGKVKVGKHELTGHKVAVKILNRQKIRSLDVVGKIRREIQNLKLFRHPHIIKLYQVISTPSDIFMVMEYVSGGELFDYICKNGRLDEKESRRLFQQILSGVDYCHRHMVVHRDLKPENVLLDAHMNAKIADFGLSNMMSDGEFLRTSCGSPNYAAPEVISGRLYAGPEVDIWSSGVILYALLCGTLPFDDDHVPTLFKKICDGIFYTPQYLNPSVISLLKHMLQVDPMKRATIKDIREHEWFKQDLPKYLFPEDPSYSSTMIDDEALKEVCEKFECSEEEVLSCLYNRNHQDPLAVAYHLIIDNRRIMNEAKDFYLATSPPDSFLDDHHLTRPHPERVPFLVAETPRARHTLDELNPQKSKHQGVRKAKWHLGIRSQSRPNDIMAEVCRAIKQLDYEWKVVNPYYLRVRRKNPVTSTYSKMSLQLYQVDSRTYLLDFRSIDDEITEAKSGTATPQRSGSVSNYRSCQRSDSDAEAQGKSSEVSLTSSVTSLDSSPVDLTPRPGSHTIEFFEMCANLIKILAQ
T1 sequence (Q9Y478 whole entry): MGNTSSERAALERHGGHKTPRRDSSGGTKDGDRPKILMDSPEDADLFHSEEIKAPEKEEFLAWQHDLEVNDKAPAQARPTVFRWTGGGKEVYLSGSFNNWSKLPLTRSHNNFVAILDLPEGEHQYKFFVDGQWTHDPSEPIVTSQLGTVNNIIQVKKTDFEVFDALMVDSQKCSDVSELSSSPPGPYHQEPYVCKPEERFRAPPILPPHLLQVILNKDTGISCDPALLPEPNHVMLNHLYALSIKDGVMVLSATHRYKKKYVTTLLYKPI
T1 sequence (P54619 whole entry partner): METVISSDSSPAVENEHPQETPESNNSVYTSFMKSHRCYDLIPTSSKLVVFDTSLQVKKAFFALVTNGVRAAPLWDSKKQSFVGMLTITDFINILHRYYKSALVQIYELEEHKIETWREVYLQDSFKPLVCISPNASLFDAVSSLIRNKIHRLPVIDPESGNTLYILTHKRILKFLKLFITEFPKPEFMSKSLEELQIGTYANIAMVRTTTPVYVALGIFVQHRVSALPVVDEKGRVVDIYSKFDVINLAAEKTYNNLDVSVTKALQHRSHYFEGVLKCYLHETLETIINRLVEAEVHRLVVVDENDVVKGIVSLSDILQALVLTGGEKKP

Usually Emax stands for the maximal effect, on the per cent scale that the assay sets. With `Cc1ccc(Oc2nc3nc(-c4ccc(OCC(C)C)cc4)c(Cl)cc3[nH]2)cc1C(=O)O` [Compound C-33], the “EC150 (compound concentration showing 150% relative to the control)” value is listed as 52 nM and the maximum response (Emax) was determined as 329%.

For `CC(C)(C(N)=O)c1ccc(Oc2nc3nc(-c4ccc(N5CCOCC5)cc4)c(Cl)cc3[nH]2)cc1` [Compound C-98], the “EC150 (compound concentration showing 150% relative to the control)” value is on record as 1700 nM and the Emax worked out at 165%.

Turning to `NS(=O)(=O)c1ccc(Oc2nc3nc(-c4ccc(N5CCOCC5)cc4)c(Cl)cc3[nH]2)cc1` [Compound B-133], the “EC150 (compound concentration showing 150% relative to the control)” value was found to be 360 nM and the maximum response (Emax) came to 234%.

Regarding `CC(=O)NC(C)(C)c1ccc(Oc2nc3nc(-c4ccc(C5=CCN(C)CC5)cc4)c(Cl)cc3[nH]2)cc1` [Compound D-108], the “EC150 (compound concentration showing 150% relative to the control)” value was 3.3 nM and the Emax stood at 301%.

In the case of `CC(C)(NC(=O)CO)c1ccc(Oc2nc3nc(-c4ccc(N5CCOCC5)cc4)c(Cl)cc3[nH]2)cc1` [Compound D-25], the “EC150 (compound concentration showing 150% relative to the control)” value is 31 nM and the Emax worked out at 225%.

With `CC(C)(C(N)=O)c1ncc(Oc2nc3nc(-c4ccc(N5CCOCC5)cc4)c(Cl)cc3[nH]2)cn1` [Compound D-54], the “EC150 (compound concentration showing 150% relative to the control)” value is reported as 110 nM and the maximum response (Emax) came to 252%.

As to `OCc1ccc(Oc2nc3nc(-c4ccc(N5CCOCC5)cc4)c(Cl)cc3[nH]2)cc1` [Compound B-131], the “EC150 (compound concentration showing 150% relative to the control)” value is given as 44 nM and the Emax came out at 298%.

On to `Clc1cc2[nH]c(Oc3ccccc3)nc2nc1-c1ccc(N2CCOCC2)cc1` [Compound B-104], for which the “EC150 (compound concentration showing 150% relative to the control)” value came out at 190 nM and the maximal response (Emax) came out at 267%.

Take `COc1ccc(Oc2nc3nc(-c4ccc(N5CCOCC5)cc4)c(Cl)cc3[nH]2)cn1` [Compound C-100]: the “EC150 (compound concentration showing 150% relative to the control)” value turned out to be 590 nM and the Emax worked out at 212%.

In the case of `C#CC(C)Oc1nc2nc(-c3ccc(N4CCOCC4)cc3)c(Cl)cc2[nH]1` (stereo not drawn) [Compound B-2], the “EC150 (compound concentration showing 150% relative to the control)” value was found to be 3.6 nM and the maximal response (Emax) amounted to 399%.

Take `CCc1ccc(Oc2nc3nc(-c4ccc(N5CCOCC5)cc4)c(Cl)cc3[nH]2)cc1C(=O)O` [Compound C-70]: the “EC150 (compound concentration showing 150% relative to the control)” value is 4.2 nM and the Emax came to 335%.

`CNCC(C)(C)c1ccc(Oc2nc3nc(-c4ccc(N5CCOCC5)cc4)c(Cl)cc3[nH]2)cc1` [Compound D-41]: the “EC150 (compound concentration showing 150% relative to the control)” value is 8300 nM and the maximal response (Emax) came out at 159%.

As for `CC(=O)NC(C)(C)c1ccc(Oc2nc3nc(-c4ccc(C5=CCOCC5)cc4)c(Cl)cc3[nH]2)cn1` [Compound D-70], the “EC150 (compound concentration showing 150% relative to the control)” value is 180 nM and the maximum response (Emax) was 214%.

On to `CC(=O)NCC(C)(C)c1ccc(Oc2nc3nc(-c4ccc(N5CCOCC5)cc4)c(Cl)cc3[nH]2)cc1` [Compound D-33], for which the “EC150 (compound concentration showing 150% relative to the control)” value was 52 nM and the maximal effect (Emax) turned out to be 220%.

Regarding `NC(=O)c1cccc2ccc(Oc3nc4nc(-c5ccc(N6CCOCC6)cc5)c(Cl)cc4[nH]3)cc12` [Compound B-113], the “EC150 (compound concentration showing 150% relative to the control)” value is 13 nM and the Emax worked out at 316%.

Consider `CC(=O)NC(C)(C)c1ccc(Oc2nc3nc(-c4ccc(OCCO)cc4)c(Cl)cc3[nH]2)cc1` [Compound D-16], for which the “EC150 (compound concentration showing 150% relative to the control)” value is 8.5 nM and the Emax came out at 280%.

As for `COCC(=O)NC(C)(C)c1ccc(Oc2nc3nc(-c4ccc(N5CCOCC5)cc4)c(Cl)cc3[nH]2)cc1` [Compound D-50], the “EC150 (compound concentration showing 150% relative to the control)” value is 11 nM and the maximum response (Emax) came to 225%.

In the case of `CC(=O)NC(C)(C)c1ccc(Oc2nc3nc(-c4ccc(N5CCOCC5)cc4)c(Cl)cc3[nH]2)cc1F` [Compound D-8], the “EC150 (compound concentration showing 150% relative to the control)” value is 39 nM and the Emax was 244%.

As to `COc1ccc(Oc2nc3nc(-c4ccc(N5CCOCC5)cc4)c(Cl)cc3[nH]2)cc1C(=O)O` [Compound C-24], the “EC150 (compound concentration showing 150% relative to the control)” value was 17 nM and the maximum response (Emax) worked out at 237%.

Turning to `Cc1ccc(-c2ccc(-c3nc4nc(Oc5ccc(C)c(C(=O)O)c5)[nH]c4cc3Cl)cc2)cc1` [Compound B-32], the “EC150 (compound concentration showing 150% relative to the control)” value is 70 nM and the Emax amounted to 301%.

As for `CC(C)(C(=O)O)c1ccc(Oc2nc3nc(-c4ccc(N5CCCC5)cc4)c(Cl)cc3[nH]2)cc1` [Compound C-11], the “EC150 (compound concentration showing 150% relative to the control)” value is 7.4 nM and the maximal response (Emax) was 356%.

For the molecule `CC(=O)NC(C)(C)c1ccc(Oc2nc3nc(-c4ccc(C5(CO)CC5)cc4)c(Cl)cc3[nH]2)cn1` [Compound D-42], the “EC150 (compound concentration showing 150% relative to the control)” value was determined as 260 nM and the Emax is 187%.

Consider `CC(=O)NC(C)(C)c1ccc(Oc2nc3nc(-c4ccc(CCO)cc4)c(Cl)cc3[nH]2)cc1` [Compound D-17], for which the “EC150 (compound concentration showing 150% relative to the control)” value was 11 nM and the maximal effect (Emax) turned out to be 282%.

Take `COc1ccc(-c2ccc(-c3nc4nc(Oc5ccc(C)c(C(=O)O)c5)[nH]c4cc3Cl)cc2)cc1` [Compound C-29]: the “EC150 (compound concentration showing 150% relative to the control)” value was determined as 8.3 nM and the Emax was found to be 349%.

On to `CC(=O)NC(C)(C)c1ccc(Oc2nc3nc(-c4ccc(N(C)C)cc4)c(Cl)cc3[nH]2)cc1` [Compound D-21], for which the “EC150 (compound concentration showing 150% relative to the control)” value worked out at 41 nM and the Emax is 351%.

Take `Cc1ccc(Oc2nc3nc(C#Cc4ccccc4)c(Cl)cc3[nH]2)cc1C(=O)O` [Compound C-95]: the “EC150 (compound concentration showing 150% relative to the control)” value is reported as 17 nM and the maximum response (Emax) worked out at 309%.

As to `CC(=O)NC(C)(C)c1ccc(Oc2nc3nc(-c4ccc(C5COC5)cc4)c(Cl)cc3[nH]2)cc1` [Compound D-111], the “EC150 (compound concentration showing 150% relative to the control)” value is reported as 150 nM and the Emax was determined as 238%.

With `CC(C)(C(N)=O)c1ccc(Oc2nc3nc(-c4ccc(N5CCOCC5)cc4)c(Cl)cc3[nH]2)cc1F` [Compound D-12], the “EC150 (compound concentration showing 150% relative to the control)” value came to 69 nM and the Emax was found to be 226%.

Take `Cc1ccc(Oc2nc3nc(-c4ccc(N5CCOCC5)cc4)c(C(F)(F)F)cc3[nH]2)cc1C(=O)O` [Compound C-96]: the “EC150 (compound concentration showing 150% relative to the control)” value was 99 nM and the maximal response (Emax) is 326%.

With `Cc1ccc(Oc2nc3nc(-c4ccc(C5(CO)CC5)cc4)c(Cl)cc3[nH]2)cc1C(=O)O` [Compound C-37], the “EC150 (compound concentration showing 150% relative to the control)” value was determined as 1.3 nM and the Emax stood at 349%.

`Cc1ccc(Oc2nc3nc(-c4ccc(C(C)(C)O)cc4)c(Cl)cc3[nH]2)cc1C(=O)O` [Compound C-63]: the “EC150 (compound concentration showing 150% relative to the control)” value is 16 nM and the maximal response (Emax) was 331%.

Turning to `CC(C)(C(=O)NCCO)c1ccc(Oc2nc3nc(-c4ccc(N5CCOCC5)cc4)c(Cl)cc3[nH]2)cc1` [Compound C-107], the “EC150 (compound concentration showing 150% relative to the control)” value came out at 300 nM and the maximal effect (Emax) is 232%.

In the case of `Clc1cc2[nH]c(Oc3cccc(-c4nnn[nH]4)c3)nc2nc1-c1ccc(N2CCOCC2)cc1` [Compound C-1], the “EC150 (compound concentration showing 150% relative to the control)” value was 66 nM and the Emax came out at 295%.

`CC(=O)NC(C)(C)c1ccc(Oc2nc3nc(-c4ccc(C5(CO)COC5)cc4)c(Cl)cc3[nH]2)cc1` [Compound D-110]: the “EC150 (compound concentration showing 150% relative to the control)” value amounted to 270 nM and the Emax turned out to be 220%.

With `O=P(O)(O)c1cccc(Oc2nc3cc(Cl)c(-c4ccc(N5CCOCC5)cc4)nc3[nH]2)c1` [Compound C-118], the “EC150 (compound concentration showing 150% relative to the control)” value is reported as 2.1 nM and the maximal effect (Emax) came out at 334%.

Consider `CC(=O)NC(C)(C)c1ccc(Oc2nc3nc(-c4ccc(C5CCOCC5)cc4)c(Cl)cc3[nH]2)cc1` [Compound D-107], for which the “EC150 (compound concentration showing 150% relative to the control)” value was found to be 26 nM and the Emax was determined as 249%.

With `CC(=O)NC(C)(C)c1ccc(Oc2nc3nc(-c4ccc(C5(CO)CCC5)cc4)c(Cl)cc3[nH]2)cc1` [Compound D-58], the “EC150 (compound concentration showing 150% relative to the control)” value stood at 66 nM and the Emax turned out to be 224%.

With `Cc1ccc(Oc2nc3nc(-c4ccc(N5CCOCC5)nc4)c(Cl)cc3[nH]2)cc1C(=O)O` [Compound B-63], the “EC150 (compound concentration showing 150% relative to the control)” value is recorded as 100 nM and the Emax was 321%.

Turning to `CC(=O)NC(C)(C)c1ccc(Oc2nc3nc(-c4ccc(N5CCOCC5)cc4)c(Cl)cc3[nH]2)cn1` [Compound D-1], the “EC150 (compound concentration showing 150% relative to the control)” value worked out at 430 nM and the Emax worked out at 182%.
